The record followed here is patent US8784793B2, “Conformable solvent-based bandage and coating material” (Rochal Industries LLP, priority 2005, dated 2014).

The series is described as follows: Rate of polymerization of BCA on a glass slide as a function of HMDS concentration. The format is physicochemical. As to the method: Additionally, a test was conducted for the rate of polymerization as a function of solvent concentration in order to assess the time interval for heat generation upon the polymerization of the cyanoacrylate monomer. The mixture included n-butyl cyanoacrylate in the presence and absence of hexamethyldisiloxane. […] Utilizing a glass slide containing BCA with no HMDS as the control, polymerization of this neat system occurred in 25 seconds. When a 20% BCA solution in HMDS was studied, utilizing the same amount of BCA as in the control, polymerization occurred in 40 seconds, and decreased the polymerization rate by 60%. […] Thus, the addition of the non-stinging, non-irritating volatile hexamethyldisiloxane solvent caused polymerization of the cyanoacrylate to occur at a slower rate than that reported by U.S. Pat. No. 6,010,714, allowing the heat of polymerization to be more evenly dissipated. […] The use of the HMDS would thus facilitate rapid coverage of a wound site.

`C=C(C#N)C(=O)OCCCC` [BCA, n-Butyl cyanoacrylate]: the “flow over the glass surface” value is on record as “tended to bead”. For the same compound, for the setting “same amount of BCA as control”, the “time in which polymerization occurred” value came out at 25 s.
